Laboratory results as given in US4965280A, “Antifungal carbinols” (E. I. Du Pont de Nemours and Company, priority 1989, dated 1990).

Columns and labels:
Assay in all cases: Test E
CMN CHICKWEED = format: in vivo, Stellaria media
JET RAPE = format: in vivo, Brassica napus cv. Jet Neuf
WILD OATS = format: in vivo, Avena fatua
BONANZA BARLEY = format: in vivo, Hordeum vulgare cv. Bonanza
BLACK NIGHTSHAD = format: in vivo, Solanum nigrum
ANN. BLUEGRASS = format: in vivo, PO annua
WILD RADISH = format: in vivo, Raphanus raphanistrum
BLACKGRASS = format: in vivo, Alopercurus mysuroides
Excerpt: Seeds of the following crops and weeds are sown into 15 cm pots containing Sassafras sandy loam soil: wheat (Triticum aestivum cv. Park), barley (Hordeum vulgare cv. Bonanza), sugarbeet (Beta vulgaris cv. USH-11), rapeseed (Brassica napus cv. Jet Neuf), black nightshade (Solanum nigrum), chickweed (Stellaria media), lambsquarter (Chenopodium album), Galium aparine, knotweed (Polygonum aviculare), Kochia scoparia, Matricaria indora, redroot pigweed (Amaranthus retroflexus), smartweed (Polygonum persicaria), speedwell (Veronica persica), wild buckwheat (Polygonum convolvulus), wild mustard (Brassica spp.), wild radish (Raphanus raphanistrum), annual bluegrass (PO annua), annual ryegrass (Lolium multiflorum), blackgrass (Alopercurus mysuroides), green foxtail (Setaria viridis), and wild oats (Avena fatua). Compounds are formulated in a nonphytotoxic solvent and applied to the plants as a foliar spray or applied to the soil surface. Plants are treated at two stages: preemergence, or postemergence when the sugarbeets are at the 2-3 true leaf stage. Plants are grown in a temperature-controlled greenhouse for the duration of the test.
Weed control and crop injury are evaluated visually at 3-4 weeks after compound application, using a scale of 0 to 100%, where 0=no injury and 100=complete death of the plant. All plants are rated with respect to untreated plants (checks) grown in the greenhouse under identical conditions to the treated plants.

PARK WHEAT = format: in vivo, Triticum aestivum cv. Park

Compound `C=C(c1ccc(F)cc1)C(O)(Cn1cncn1)c1ccccc1F` (stereo not drawn) [Example 644] has a plant response (CMN CHICKWEED; POSTEMERGENCE 0064 GM/HA) of 0%, a plant response (CMN CHICKWEED; POSTEMERGENCE 0125 GM/HA) of 0% and a plant response (CMN CHICKWEED; POSTEMERGENCE 0250 GM/HA) of 0%. The plant response (CMN CHICKWEED; POSTEMERGENCE 0500 GM/HA) was 0%, the plant response (CMN CHICKWEED; PREEMERGENCE 0500 GM/HA) was 20% and the plant response (JET RAPE; POSTEMERGENCE 0064 GM/HA) was 0%. The plant response (JET RAPE; POSTEMERGENCE 0125 GM/HA) was 0%, the plant response (JET RAPE; POSTEMERGENCE 0250 GM/HA) was 0% and the plant response (JET RAPE; POSTEMERGENCE 0500 GM/HA) was 30%. The plant response (JET RAPE; PREEMERGENCE 0500 GM/HA) was 20%, the plant response (WILD OATS; POSTEMERGENCE 0064 GM/HA) was 0% and the plant response (WILD OATS; POSTEMERGENCE 0125 GM/HA) was 0%. For the same compound, the plant response (WILD OATS; POSTEMERGENCE 0250 GM/HA) was 20%, the plant response (WILD OATS; POSTEMERGENCE 0500 GM/HA) was 20% and the plant response (WILD OATS; PREEMERGENCE 0500 GM/HA) was 20%. For the same compound, the plant response (BONANZA BARLEY; POSTEMERGENCE 0064 GM/HA) was 0%, the plant response (BONANZA BARLEY; POSTEMERGENCE 0125 GM/HA) was 20% and the plant response (BONANZA BARLEY; POSTEMERGENCE 0250 GM/HA) was 20%. The plant response (BONANZA BARLEY; POSTEMERGENCE 0500 GM/HA) was 40%, the plant response (BONANZA BARLEY; PREEMERGENCE 0500 GM/HA) was 50% and the plant response (BLACK NIGHTSHAD; POSTEMERGENCE 0064 GM/HA) was 0%. For the same compound, the plant response (BLACK NIGHTSHAD; POSTEMERGENCE 0125 GM/HA) was 0%, the plant response (BLACK NIGHTSHAD; POSTEMERGENCE 0250 GM/HA) was 10% and the plant response (BLACK NIGHTSHAD; POSTEMERGENCE 0500 GM/HA) was 20%. It also gave a plant response (BLACK NIGHTSHAD; PREEMERGENCE 0500 GM/HA) of 0%, a plant response (ANN. BLUEGRASS; POSTEMERGENCE 0064 GM/HA) of 20% and a plant response (ANN. BLUEGRASS; POSTEMERGENCE 0125 GM/HA) of 50%. The plant response (ANN. BLUEGRASS; POSTEMERGENCE 0250 GM/HA) was 50%, the plant response (ANN. BLUEGRASS; POSTEMERGENCE 0500 GM/HA) was 80% and the plant response (ANN. BLUEGRASS; PREEMERGENCE 0500 GM/HA) was 80%. For the same compound, the plant response (WILD RADISH; POSTEMERGENCE 0064 GM/HA) was 20%, the plant response (WILD RADISH; POSTEMERGENCE 0125 GM/HA) was 30% and the plant response (WILD RADISH; POSTEMERGENCE 0250 GM/HA) was 50%. For the same compound, the plant response (WILD RADISH; POSTEMERGENCE 0500 GM/HA) was 80%, the plant response (WILD RADISH; PREEMERGENCE 0500 GM/HA) was 0% and the plant response (BLACKGRASS; POSTEMERGENCE 0064 GM/HA) was 0%. It also gave a plant response (BLACKGRASS; POSTEMERGENCE 0125 GM/HA) of 0%, a plant response (BLACKGRASS; POSTEMERGENCE 0250 GM/HA) of 30% and a plant response (BLACKGRASS; POSTEMERGENCE 0500 GM/HA) of 50%. The plant response (BLACKGRASS; PREEMERGENCE 0500 GM/HA) was 20%, the plant response (PARK WHEAT; POSTEMERGENCE 0064 GM/HA) was 0% and the plant response (PARK WHEAT; POSTEMERGENCE 0125 GM/HA) was 20%. The plant response (PARK WHEAT; POSTEMERGENCE 0250 GM/HA) was 30%, the plant response (PARK WHEAT; POSTEMERGENCE 0500 GM/HA) was 40% and the plant response (PARK WHEAT; PREEMERGENCE 0500 GM/HA) was 30%.
